From patent US12060588B2, “Methods of editing DNA methylation” (Whitehead Institute for Biomedical Research, priority 2016, dated 2024)

Tested on: HEK293T cells
Assay: Nuclear-cytoplasmic localization of dCas9-Tet1 constructs with or without gRNA
Format: cell-based
Details: for induction index (nuclear-cytoplasmic ratio with sgRNA normalized to that without sgRNA): HEK293T cells
Text: FIGS. 8A-8E depict a modified CRISPR system for editing 5-cytosine DNA methylation in the mammalian genome. FIG. 8A depicts design of dCas9-effector constructs with nuclear localization signal (NLS) located at different positions, and guide RNA (gRNA) or enhanced guide RNA (E-gRNA) with CMV-driven puro-T2A-Cherry cassette. Ub: human Ubiquitin C promoter. […] FIG. 8C provides comparison of the cellular localization of dCas9-NLS-Tet1 and NLS-dCas9-NLS-Tet1 in HEK293T cells with or without co-expression of a gRNA or E-gNRA targeting the same position in the MyoD locus. […] Co-expression of either gRNA or E-gRNA induced cytoplasm-to-nucleus translocation of these two proteins. Stained in green for dCas9, red for Cherry and blue for DAPI in the merged images. The red dashed lines in the first two panels indicate the cross section of the images for GFP intensity quantification. Scale bar: 10 um. FIG. 8D provides quantification of the nuclear-cytoplasmic ratio of dCas9-NLS-Tet1 and NLS-dCas9-NLS-Tet1 in HEK293T cells in the absence or presence of a gRNA, or an E-gNRA in a Box and Whiskers plot. Average dCas9 intensity of cytoplasmic and nuclear domain along a cross-sectional line as illustrated in C was used for the quantification. “+” denotes mean value of the 20 data points in each group; the boxes indicate the extreme data points (top and bottom bars), the 25-75% interval (box), and the median (central line). […] We reasoned that the combination with the highest induction index would result in the best signal-to-noise ratio for targeted DNA methylation editing.
To achieve targeted editing of DNA methylation, we fused dCas9 with enzymes in the methylation/demethylation pathway (FIG. 1A). […] Both gRNA constructs contain a puro selection cassette and a Cherry fluorescence protein cassette driven by an independent CMV promoter that allows for Fluorescence Activated Cell Sorting (FACS) of gRNA-expressing cells after lentiviral transduction (FIG. 8A). […]

Substance: dCas9-Tet1: catalytically inactive Cas9 (dCas9) fused through NLS to the Tet1 catalytic domain, SEQ ID NO: 159; lentivirally expressed with gRNAs
- induction index (nuclear-cytoplasmic ratio with sgRNA normalized to that without sgRNA) (co-expression of E-gRNA targeting the MyoD locus): 3.22 folds
- induction index (nuclear-cytoplasmic ratio with sgRNA normalized to that without sgRNA) (co-expression of gRNA targeting the MyoD locus): 3.17 folds
- cellular localization (in the absence of sgRNAs, transfected HEK293T cells): predominantly excluded from the nuclear compartment
